Reference: US7423030B2, “1-amino-phthalazine derivatives, the preparation and the therapeutic use thereof” (Sanofi-Aventis, priority 2004, dated 2008)
Structures can show the parent of a compound that is named as a salt.

System: not given
Experiment: not given
Details: not given

Row | Compound | melting point [°C]
1 | COc1ccc(-c2nnc(NC3CCN(Cc4ccccc4)CC3)c3cc(OC)cc(OC)c23)cc1 [Compound 11, N-(1-benzylpiperidin-4-yl)-5,7-dimethoxy-4-(4-methoxyphenyl)phthalazin-1-amine] | 168
2 | COc1ccc2c(-c3ccc(F)cc3)nnc(NC3CCN(Cc4ccc5ccccc5c4)CC3)c2c1 (as salt: salt) (hydrate or solvate) [Compound 82, 4-(4-Fluorophenyl)-7-methoxy-N-[1-(naphthalen-2-ylmethyl)piperidin-4-yl]phthalazin-1-amine] | 175
3 | CCCCc1nnc(NC2CCN(Cc3ccc4ccccc4c3)CC2)c2cc(OC)ccc12 (as salt: salt) (hydrate or solvate) [Compound 67, 4-Butyl-7-methoxy-N-[1-(naphthalen-2-ylmethyl)piperidin-4-yl]phthalazin-1-amine] | 101
4 | COc1ccc(-c2nnc(NC3CCN(Cc4ccc5oc(=O)ccc5c4)CC3)c3cc(OC)ccc23)cc1.Cl.Cl (hydrate or solvate) | 293
5 | COCc1ccc(-c2nnc(NC3CCN(Cc4ccc5ccccc5c4)CC3)c3cc(OC)ccc23)cc1 (as salt: salt) (hydrate or solvate) [Compound 88, 7-Methoxy-4-(4-methoxymethylphenyl)-N-[1-(naphthalen-2-ylmethyl)piperidin-4-yl]phthalazin-1-amine] | 155
6 | COc1ccc(-c2nnc(NC3CCN(Cc4ccc(OC)c(C)c4)CC3)c3cc(OC)ccc23)cc1 (as salt: salt) (hydrate or solvate) [Compound 89, 7-methoxy-N-[1-(4-methoxy-3-methylbenzyl)piperidin-4-yl]-4-(4-methoxyphenyl)phthalazin-1-amine] | 270
7 | COc1ccc(-c2nnc(NC3CCN(Cc4ccc5ccccc5c4)CC3)c3ccc(C)cc23)cc1 (as salt: salt) (hydrate or solvate) [Compound 142, 4-(4-methoxyphenyl)-6-methyl-N-[1-(naphthalen-2-ylmethyl)piperidin-4-yl]phthalazin-1-amine] | 134
8 | CCc1nnc(NC2CCN(Cc3ccc4ccccc4c3)CC2)c2cc(OC)ccc12 (as salt: salt) (hydrate or solvate) [Compound 20, 4-Ethyl-7-methoxy-N-[1-(naphthalen-2-ylmethyl)piperidin-4-yl]phthalazin-1-amine] | 135
9 | COc1ccc(OC)c(-c2nnc(NC3CCN(Cc4ccc5ccccc5c4)CC3)c3cc(OC)ccc23)c1.Cl.Cl (hydrate or solvate) | 240
10 | COc1ccc(-c2nnc(NC3CCN(Cc4ccc(CN(C)C)cc4)CC3)c3cc(OC)ccc23)cc1.Cl.Cl.Cl (hydrate or solvate) | 218
11 | COc1ccc(-c2nnc(NC3CCN(Cc4ccc(C#N)cc4)CC3)c3cc(OC)ccc23)cc1 (as salt: HCl) (hydrate or solvate) [Compound 108, N-[1-(4-cyanobenzyl)piperidin-4-yl)-7-methoxy-4-(4-methoxyphenyl)phthalazin-1-amine] | 270

Continued, values first:

Row | melting point [°C] | Compound
12 | 188 | COc1ccc2c(C)nnc(NC3CCN(Cc4ccc5ccccc5c4)CC3)c2c1 [Compound 95, 7-Methoxy-4-methyl-N-[1-(naphthalen-2-ylmethyl)piperidin-4-yl]phthalazin-1-amine]
13 | 254 | COc1ccc(-c2nnc(N[C@@H]3CCN(Cc4ccc5ccccc5c4)C3)c3cc(OC)ccc23)cc1.Cl.Cl (hydrate or solvate)
14 | 249 | COc1ccc(-c2nnc(NC3CCN(Cc4ccc5ncccc5c4)CC3)c3cc(OC)ccc23)cc1 (as salt: salt) (hydrate or solvate) [Compound 99, 7-methoxy-4-(4-methoxyphenyl)-N-[1-(quinolin-6-ylmethyl)piperidin-4-yl]phthalazin-1-amine]
15 | 169 | COc1cc(OC)c2cnnc(NC3CCN(Cc4ccccc4)CC3)c2c1 (as salt: salt) (hydrate or solvate) [Compound 13, N-(1-benzylpiperidin-4-yl)-5,7-dimethoxyphthalazin-1-amine]
16 | 277 | COc1ccc(-c2nnc(NC3CCN(Cc4ccc(Cl)cc4)CC3)c3cc(OC)ccc23)cc1.Cl.Cl (hydrate or solvate)
17 | 216 | COc1ccc(CN2CCC(Nc3nnc(-c4ccc(OC)cc4)c4ccc(OC)cc34)CC2)cc1.Cl.Cl (hydrate or solvate)
18 | 208 | COc1ccc(-c2nnc(NC3CCN(Cc4ccc(C(C)O)cc4)CC3)c3cc(OC)ccc23)cc1.Cl.Cl (stereo not drawn) (hydrate or solvate)
19 | 212 | COc1ccc(-c2nnc(NC3CCN(Cc4ccc5ccccc5c4)CC3)c3cc(OC)cc(OC)c23)cc1.Cl.Cl (hydrate or solvate)
20 | 284 | COCc1nnc(NC2CCN(Cc3ccc4c(c3)OCO4)CC2)c2cc(OC)ccc12.Cl.Cl (hydrate or solvate)
21 | 207 | Fc1ccc(-c2nnc(NC3CCN(Cc4ccc5ccccc5c4)CC3)c3cc(F)ccc23)cc1 [Compound 106, 7-Fluoro-4-(4-fluorophenyl)-N-[1-(naphthalen-2-ylmethyl)piperidin-4-yl]phthalazin-1-amine]
22 | 148 | COc1ccc(-c2nnc(NC3CCN(Cc4ccc(C)cc4)CC3)c3cc(OC)ccc23)cc1 (as salt: HCl) [Compound 75, 7-methoxy-4-(4-methoxyphenyl)-N-[1-(4-methylbenzyl)piperidin-4-yl]phthalazin-1-amine]
23 | 240 | COc1cc(OC)cc(-c2nnc(NC3CCN(Cc4ccc5ccccc5c4)CC3)c3cc(OC)ccc23)c1.Cl.Cl (hydrate or solvate)
24 | 199 | COc1cc(-c2ccccc2)c2cnnc(NC3CCN(Cc4ccc5ccccc5c4)CC3)c2c1.Cl.Cl (hydrate or solvate)

System: MCH1 receptor
Experiment: not given
Details: social conflict and forced swimming in rats, maternal separation in guinea pigs; cited from earlier work

Row | Compound | behavioural profile in animal models
25 | COCC1=C(C(=O)OC)[C@H](c2ccc(F)c(F)c2)N(C(=O)NCCCN2CCC(c3cccc(NC(C)=O)c3)CC2)C(=O)N1 [SNAP-7941] | anxiolytic and/or antidepressant profile

Target: MCH1 receptor (UniProt P97639)
Experiment: Displacement of [125I]-Tyr-S36057 binding to MCH1 receptors on brain membrane preparations
Details: rat and/or mouse brain membranes, 50 pM [125I]-Tyr-S36057, room temperature, 30 minutes; read-out: IC50 (concentration that inhibits 50% of the specific binding)
Method: The compounds according to the invention underwent pharmacological tests. Their affinity towards the receptor 1 of Melamin-Concentrating Hormone (MCH), MCH1 was determined by these means.
The tests consisted in measuring the in vitro activity of the compounds of the invention on the MCH1 receptors of MCH.
The measurement of the affinity of the compounds of the invention for the MCH receptors was performed by studying the displacement of the binding of a radiolabelled derivative of MCH to the MCH1 receptors. This study was performed on rat and/or mouse brain membrane preparations according to the protocol described below.
In anticipation of the binding studies, the brains are diluted in HEPES buffer 25 mM (pH: 7.4) containing MgCl2 5 mM, CaCl2 1 mM, homogenized using a Polytron blender for 3 times 20 seconds (speed 25), and are then ultracentrifuged at 22 000 rpm and at +4° C. for 30 minutes. […]
The incubation is performed at room temperature for 30 minutes, and then stopped by rapid addition of ice-cold HEPES buffer 25 mM (pH: 7.4) supplemented with 0.2% bovine serum albumin, and by filtration through GF/B glass fibre filters preincubated for 2 hours in an aqueous 0.1% polyethyleneimine solution. The radioactivity retained on the filters is measured using a Gamma scintillation counter. The non-specific binding is determined in the presence of 1 μM of non-radiolabelled S36057. […]

Row | Compound | IC50 [nM]
26 | c1ccc(-c2ccc3c(-c4ccccc4)nnc(NC4CCN(Cc5ccc6ccccc6c5)CC4)c3c2)cc1 [Example 42, 4,7-diphenyl-N-[1-(naphthalen-2-ylmethyl)piperidin-4-yl]-phthalazin-1-amine dihydrochloride] | 360
27 | COc1ccc(-c2nnc(NC3CCN(Cc4ccccc4)CC3)c3cc(OC)cc(OC)c23)cc1 [Example 2, N-(1-benzylpiperidin-4-yl)-5,7-dimethoxy-4-(4-methoxyphenyl)phthalazin-1-amine] | 72
